Consider 21 compounds from patent US20260125370A1, “SULFOXIMINE COMPOUNDS AS HISTONE DEACETYLASE 6 INHIBITOR, AND PHARMACEUTICAL COMPOSITION COMPRISING THE SAME” (CHONG KUN DANG PHARMACEUTICAL CORP., priority 2022, published 2026).

The term IC50 denotes the concentration that gives 50% inhibition.

Assay [1] deals with T1, human recombinant HDAC6 (Homo sapiens, UniProt Q9UBN7).
T1 construct: purchased Calbiochem 382180
T1 sequence (Q9UBN7 1-1215): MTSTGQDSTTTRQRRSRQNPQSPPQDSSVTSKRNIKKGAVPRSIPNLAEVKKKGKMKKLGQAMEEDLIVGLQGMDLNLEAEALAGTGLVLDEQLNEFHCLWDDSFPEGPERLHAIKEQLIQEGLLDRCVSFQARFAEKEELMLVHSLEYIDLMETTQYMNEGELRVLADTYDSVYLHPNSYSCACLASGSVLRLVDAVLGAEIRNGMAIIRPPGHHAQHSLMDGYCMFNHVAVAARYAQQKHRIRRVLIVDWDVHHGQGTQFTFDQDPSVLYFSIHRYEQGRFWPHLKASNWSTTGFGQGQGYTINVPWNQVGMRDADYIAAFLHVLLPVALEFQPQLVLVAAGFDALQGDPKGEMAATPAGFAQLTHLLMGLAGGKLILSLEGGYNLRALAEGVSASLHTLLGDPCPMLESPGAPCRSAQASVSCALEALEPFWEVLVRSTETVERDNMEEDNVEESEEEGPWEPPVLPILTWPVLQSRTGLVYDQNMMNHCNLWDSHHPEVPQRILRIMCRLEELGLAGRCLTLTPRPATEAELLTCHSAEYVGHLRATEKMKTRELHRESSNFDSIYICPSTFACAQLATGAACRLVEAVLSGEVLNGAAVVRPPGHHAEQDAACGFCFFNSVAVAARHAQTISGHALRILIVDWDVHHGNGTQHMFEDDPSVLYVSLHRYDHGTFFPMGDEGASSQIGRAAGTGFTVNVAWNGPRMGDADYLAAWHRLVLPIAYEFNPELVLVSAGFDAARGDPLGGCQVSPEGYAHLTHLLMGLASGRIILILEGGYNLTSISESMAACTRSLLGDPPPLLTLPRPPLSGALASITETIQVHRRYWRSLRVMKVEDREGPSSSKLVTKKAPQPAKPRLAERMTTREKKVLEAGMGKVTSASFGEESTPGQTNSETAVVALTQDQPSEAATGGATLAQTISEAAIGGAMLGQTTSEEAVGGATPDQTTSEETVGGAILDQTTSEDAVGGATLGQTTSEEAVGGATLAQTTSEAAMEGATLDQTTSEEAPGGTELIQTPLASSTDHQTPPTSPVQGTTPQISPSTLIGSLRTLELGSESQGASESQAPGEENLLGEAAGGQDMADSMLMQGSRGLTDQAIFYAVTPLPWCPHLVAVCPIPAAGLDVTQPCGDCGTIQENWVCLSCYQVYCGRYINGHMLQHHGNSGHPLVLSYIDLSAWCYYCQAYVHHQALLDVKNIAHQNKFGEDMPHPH
The experiment in a line: HDAC6 enzyme activity inhibition (fluorimetric, in vitro). As to conditions: samples at 0.1, 1, 10, 100 and 1000 nM. Format: biochemical. Summed up: (§1)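 Recombinant human HDAC1 or HDAC6 (0.3 μg) with Fluor de Lys-SIRT1 substrate at […], 60 min at 37 °C, then developer 30 min; fluorescence Ex 360/Em 460. Compounds at 100–10000 nM for HDAC1 and 0.1–1000 nM for HDAC6; IC50 calculated.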

For assay [2], the target named is T2, human recombinant HDAC1 (Homo sapiens, UniProt Q13547).
T2 construct: purchased Enzolifesciences BML-SE456
T2 sequence (Q13547 whole entry): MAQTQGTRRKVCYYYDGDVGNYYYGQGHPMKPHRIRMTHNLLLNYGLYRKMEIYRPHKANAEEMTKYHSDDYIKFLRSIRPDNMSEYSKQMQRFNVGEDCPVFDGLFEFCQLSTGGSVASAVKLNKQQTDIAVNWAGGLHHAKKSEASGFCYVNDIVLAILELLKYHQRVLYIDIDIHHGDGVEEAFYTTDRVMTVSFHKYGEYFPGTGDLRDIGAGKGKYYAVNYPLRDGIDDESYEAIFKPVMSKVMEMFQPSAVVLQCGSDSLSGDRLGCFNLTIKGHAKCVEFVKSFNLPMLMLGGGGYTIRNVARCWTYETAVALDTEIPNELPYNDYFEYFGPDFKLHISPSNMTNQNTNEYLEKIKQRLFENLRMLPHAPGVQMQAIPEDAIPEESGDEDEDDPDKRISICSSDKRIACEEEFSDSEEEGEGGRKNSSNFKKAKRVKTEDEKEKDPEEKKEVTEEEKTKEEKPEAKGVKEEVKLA
The experiment in a line: HDAC1 enzyme activity inhibition (HDAC1 Fluorimetric Drug Discovery Assay Kit, in vitro). Format: biochemical. Particulars: samples at 100, 1000 and 10000 nM. Summed up: as §1

As to `N=S1(=O)CCN(C(=O)N(Cc2ncc(-c3nnc(C(F)F)o3)cc2F)c2ccccc2F)CC1` [Compound 55], the IC50 in assay [1] was 140 nM; in assay [2], > 10 µM.
With `N=S1(=O)CCN(C(=O)N(Cc2ccc(-c3nnc(C(F)F)o3)cc2F)c2ccccc2F)CC1` [Compound 56, N-(4-(5-(difluoromethyl)-1,3,4-oxadiazol-2-yl)-2-fluorobenzyl)-N-(2-fluorophenyl)-1-iminothiomorpholin-4-carboxamide 1-oxide], the IC50 in assay [1] is 72.6 nM; in assay [2] it was > 10 µM.
In the case of `N=S1(=O)CCN(C(=O)N(Cc2ccc(-c3nnc(C(F)F)o3)cn2)c2ccccc2F)CC1` [Compound 57], the IC50 was 130 nM in assay [1] and > 10 µM in assay [2].
The like results for `O=C(NC1CCS(=O)(=NC(=O)C(F)(F)F)CC1)N(Cc1ccc(-c2nnc(C(F)F)o2)cc1F)c1ccccc1` (stereo not drawn) [Compound 58, N-(4-(3-(4-(5-(difluoromethyl)-1,3,4-oxadiazol-2-yl)-2-fluorobenzyl)-3-phenylureido)-1-oxidotetrahydro-2H-thiopyran-1-yliden)-2,2,2-trifluoroacetamide] were, in that order, 256 nM and > 10 µM.
`N=S1(=O)CCC(NC(=O)N(Cc2ccc(-c3nnc(C(F)F)o3)cc2F)c2ccccc2)CC1` (stereo not drawn) [Compound 59, 1-(4-(5-(difluoromethyl)-1,3,4-oxadiazol-2-yl)-2-fluorobenzyl)-3-(1-imino-1-oxidotetrahydro-2H-thiopyran-4-yl)-1-phenylurea]: the results for the IC50 in assay [1] and in assay [2] were 116 nM and > 10 µM, respectively.
Take `N=S1(=O)CCN(c2c(N(Cc3ccc(-c4nnc(C(F)F)o4)cc3F)c3ccccc3)c(=O)c2=O)CC1` [Compound 60, 3-((4-(5-(difluoromethyl)-1,3,4-oxadiazol-2-yl)-2-fluorobenzyl)(phenyl)amino)-4-(1-imino-1-oxidothiomorpholino)cyclobut-3-en-1,2-dione]: the IC50 was 26.7 nM in assay [1] and > 10 µM in assay [2].
In the case of `N=S1(=O)CCN(c2c(N(Cc3ncc(-c4nnc(C(F)F)o4)cc3F)c3ccccc3)c(=O)c2=O)CC1` [Compound 61, 3-(((5-(5-(difluoromethyl)-1,3,4-oxadiazol-2-yl)-3-fluoropyridin-2-yl)methyl)(phenyl)amino)-4-(1-imino-1-oxidothiomorpholino)cyclobut-3-en-1,2-dione], the half-inhibitory concentration (IC50) in assay [1] is 29.8 nM; in assay [2], > 10 µM.
On the same counts, the results for `N=S1(=O)CCN(C(=O)N(Cc2ccc(-c3nnc(C(F)F)o3)cn2)c2ccc(F)cc2)CC1` [Compound 62, N-[[5-[5-(difluoromethyl)-1,3,4-oxadiazol-2-yl]-2-pyridyl]methyl]-N-(4-fluorophenyl)-1-imino-1-oxo-1,4-thiazinan-4-carboxamide] are 88.4 nM and > 10 µM.
The like results for `N=S1(=O)CCN(C(=O)N(Cc2ccc(-c3nnc(C(F)F)o3)cc2F)c2ccc(F)cc2)CC1` [Compound 63, N-[[4-[5-(difluoromethyl)-1,3,4-oxadiazol-2-yl]-2-fluoro-phenyl]methyl]-N-(4-fluorophenyl)-1-imino-1-oxo-1,4-thiazinan-4-carboxamide] were, in that order, 99.6 nM and > 10 µM.
Consider `CC1CN(C(=O)N(Cc2ccc(-c3nnc(C(F)F)o3)cn2)c2ccc(F)cc2)CC(C)S1(=N)=O` (stereo not drawn) [Compound 64, N-[[5-[5-(difluoromethyl)-1,3,4-oxadiazol-2-yl]-2-pyridyl]methyl]-N-(4-fluorophenyl)-1-imino-2,6-dimethyl-1-oxo-1,4-thiazinan-4-carboxamide], for which the values for the half-maximal inhibitory concentration (IC50) in assay [1] and in assay [2] were 123 nM and > 10 µM, respectively.
The like results for `CC1CN(C(=O)N(Cc2ccc(-c3nnc(C(F)F)o3)cc2F)c2ccc(F)cc2)CC(C)S1(=N)=O` (stereo not drawn) [Compound 65, N-[[4-[5-(difluoromethyl)-1,3,4-oxadiazol-2-yl]-2-fluoro-phenyl]methyl]-N-(4-fluorophenyl)-1-imino-2,6-dimethyl-1-oxo-1,4-thiazinan-4-carboxamide] were, in that order, 105 nM and > 10 µM.
As to `N=S1(=O)CCN(C(=O)N(Cc2ccc(-c3nnc(C(F)F)o3)cc2F)c2cccnc2)CC1` [Compound 66, N-[[4-[5-(difluoromethyl)-1,3,4-oxadiazol-2-yl]-2-fluoro-phenyl]methyl]-1-imino-1-oxo-N-(3-pyridyl)-1,4-thiazinan-4-carboxamide], the half-inhibitory concentration (IC50) in assay [1] is 90.2 nM; in assay [2], > 10 µM.
On to `CC(=O)N1CCC(c2ccc(N(Cc3ccc(-c4nnc(C(F)F)o4)cc3F)C(=O)N3CCS(=N)(=O)CC3)cc2)CC1` [Compound 67], for which the concentration for half-maximal inhibition (IC50) in assay [1] was 347 nM; in assay [2] it was > 10 µM.
For the compound `N=S1(=O)C[C@@H]2C[C@H]1CN2C(=O)N(Cc1ccc(-c2nnc(C(F)F)o2)cc1F)c1ccccc1` (stereo partly drawn) [Compound 68, (1S,4S)—N-[[4-[5-(difluoromethyl)-1,3,4-oxadiazol-2-yl]-2-fluoro-phenyl]methyl]-2-imino-2-oxo-N-phenyl-2lambda6-thia-5-azabicyclo[2.2.1]heptan-5-carboxamide], the half-inhibitory concentration (IC50) was 39 nM in assay [1] and > 10 µM in assay [2].
For the compound `N=S1(=O)CCN(S(=O)(=O)N(Cc2ccc(-c3nnc(C(F)F)o3)cc2F)c2cc(F)ccc2F)CC1` [Compound 69, N-[[4-[5-(difluoromethyl)-1,3,4-oxadiazol-2-yl]-2-fluoro-phenyl]methyl]-N-(2,5-difluorophenyl)-1-imino-1-oxo-1,4-thiazinan-4-sulfonamide], the half-maximal inhibitory concentration (IC50) is 124 nM in assay [1] and > 10 µM in assay [2].
With `N=S1(=O)CCN(S(=O)(=O)N(Cc2ccc(-c3nnc(C(F)F)o3)cc2F)c2cccc(Cl)c2)CC1` [Compound 70, N-(3-chlorophenyl)-N-[[4-[5-(difluoromethyl)-1,3,4-oxadiazol-2-yl]-2-fluoro-phenyl]methyl]-1-imino-1-oxo-1,4-thiazinan-4-sulfonamide], the half-inhibitory concentration (IC50) in assay [1] was 52.2 nM; in assay [2] it was > 10 µM.
On the same counts, the results for `N=S1(=O)CCN(S(=O)(=O)N(Cc2ccc(-c3nnc(C(F)F)o3)cn2)c2cccc(Cl)c2)CC1` [Compound 71, N-(3-chlorophenyl)-N-[[5-[5-(difluoromethyl)-1,3,4-oxadiazol-2-yl]-2-pyridyl]methyl]-1-imino-1-oxo-1,4-thiazinan-4-sulfonamide] are 31.7 nM and > 10 µM.
Consider `COc1cccc(N(Cc2ccc(-c3nnc(C(F)F)o3)cn2)S(=O)(=O)N2CCS(=N)(=O)CC2)c1` [Compound 72, N-[[5-[5-(difluoromethyl)-1,3,4-oxadiazol-2-yl]-2-pyridyl]methyl]-1-imino-N-(3-methoxyphenyl)-1-oxo-1,4-thiazinan-4-sulfonamide], for which the half-maximal inhibitory concentration (IC50) in assay [1] was 78.8 nM; in assay [2] it was > 10 µM.
As to `COc1cccc(N(Cc2ccc(-c3nnc(C(F)F)o3)cc2F)S(=O)(=O)N2CCS(=N)(=O)CC2)c1` [Compound 73, N-[[4-[5-(difluoromethyl)-1,3,4-oxadiazol-2-yl]-2-fluoro-phenyl]methyl]-1-imino-N-(3-methoxyphenyl)-1-oxo-1,4-thiazinan-4-sulfonamide], the results for the half-inhibitory concentration (IC50) in assay [1] and in assay [2] were 72.5 nM and > 10 µM, respectively.
On the same counts, the results for `N=S1(=O)CCN(CCS(=O)(=O)N(Cc2ccc(-c3nnc(C(F)F)o3)cc2F)c2ccccc2)CC1` [Compound 74, N-[[4-[5-(difluoromethyl)-1,3,4-oxadiazol-2-yl]-2-fluoro-phenyl]methyl]-2-(1-imino-1-oxo-1,4-thiazinan-4-yl)-N-phenyl-ethanesulfonamide] are 63.6 nM and > 10 µM.
On to `CS(=N)(=O)C1CCN(C(=O)N(Cc2ccc(-c3nnc(C(F)F)o3)cc2F)c2ccccc2)CC1` (stereo not drawn) [Compound 75, N-[[4-[5-(difluoromethyl)-1,3,4-oxadiazol-2-yl]-2-fluoro-phenyl]methyl]-4-(methylsulfonimidoyl)-N-phenyl-piperidin-1-carboxamide], for which the IC50 in assay [1] was 96.3 nM; in assay [2], > 10 µM.
